Test results from patent US10875851B2, “Factor XIIa inhibitors” (Merck Sharp & Dohme Corp., priority 2016, dated 2020).

These compounds were tested against human Factor XIIa (Homo sapiens (Human), UniProt P00748) (assay: Factor XIIa Assay). Conditions: purified human Factor XIIa 500 pM; substrate n-Acetyl-Lys-Pro-Arg-AFC 100 μM; pH 7.4; read-out: FXIIa IC50.
human Factor XIIa, sequence (P00748 373-615): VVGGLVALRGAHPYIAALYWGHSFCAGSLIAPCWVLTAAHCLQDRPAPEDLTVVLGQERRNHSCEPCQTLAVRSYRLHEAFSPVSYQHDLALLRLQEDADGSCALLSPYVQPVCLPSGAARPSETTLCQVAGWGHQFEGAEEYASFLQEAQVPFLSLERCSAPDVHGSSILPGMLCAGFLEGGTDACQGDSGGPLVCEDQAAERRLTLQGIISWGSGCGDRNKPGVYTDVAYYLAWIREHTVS
Assay type: biochemical
How it was run: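 Purified human FXIIa at 500 pM final with 100 μM n-Acetyl-Lys-Pro-Arg-AFC in 50 mM HEPES, 150 mM NaCl, 5 mM CaCl2, 0.1% PEG 8000, pH 7.4, at room temperature or 37° C. Initial fluorogenic hydrolysis rates measured after enzyme–inhibitor equilibration; IC50 taken where Vi=Vo/2.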
`C[C@@H]1N=C(N2CCN(C(=O)[C@@H](CCCCNS(C)(=O)=O)NC3CCCCC3)[C@H](C(=O)NCc3cccs3)C2)O[C@H]1c1ccccc1` [Example 123, (2S)-1-[N^2-cyclohexyl-N^6-(methylsulfonyl)-D-lysyl]-4-[(4S,5S)-4-methyl-5-phenyl-4,5-dihydro-1,3-oxazol-2-yl]-N-(thiophen-2-ylmethyl)piperazine-2-carboxamide] gave an IC50 of 7 nM. `C[C@@H]1N=C(N2CCN(C(=O)[C@@H](CCCCNS(C)(=O)=O)NC3CCCCC3)[C@H](C(=O)NCc3cccs3)C2)O[C@H]1c1cccc(Br)c1` [Example 124, (2S)-4-[(4S,5S)-5-(3-bromophenyl)-4-methyl-4,5-dihydro-1,3-oxazol-2-yl]-1-[N^2-cyclohexyl-N^6-(methylsulfonyl)-D-lysyl]-N-(thiophen-2-ylmethyl)piperazine-2-carboxamide] gave an IC50 of 24.6 nM. Work on `C[C@@H]1N=C(N2CCN(C(=O)[C@@H](CCCCNS(C)(=O)=O)NC3CCCCC3)[C@H](C(=O)NCc3cccs3)C2)O[C@H]1c1cccc(Cl)c1` [Example 125, (2S)-4-[(4S,5S)-5-(3-chlorophenyl)-4-methyl-4,5-dihydro-1,3-oxazol-2-yl]-1-[N^2-cyclohexyl-N^6-(methylsulfonyl)-D-lysyl]-N-(thiophen-2-ylmethyl)piperazine-2-carboxamide] yielded an IC50 of 23 nM. In the case of `CS(=O)(=O)NCCCC[C@@H](NC1CCCCC1)C(=O)N1CCN(C2=NCC3(CCCCC3)O2)C[C@H]1C(=O)NCc1cccs1` [Example 126, (2S)-1-[N^2-cyclohexyl-N^6-(methylsulfonyl)-D-lysyl]-4-(1-oxa-3-azaspiro[4.5]dec-2-en-2-yl)-N-(thiophen-2-ylmethyl)piperazine-2-carboxamide], the IC50 is reported as 21.1 nM. `C[C@@H]1N=C(N2CCN(C(=O)[C@@H](CCCCNS(C)(=O)=O)NC3CCCCC3)[C@H](C(=O)NCc3cccs3)C2)O[C@H]1c1ccccc1C#N` [Example 127, (2S)-4-[(4S,5S)-5-(2-cyanophenyl)-4-methyl-4,5-dihydro-1,3-oxazol-2-yl]-1-[N^2-cyclohexyl-N^6-(methylsulfonyl)-D-lysyl]-N-(thiophen-2-ylmethyl)piperazine-2-carboxamide] gave an IC50 of 18.7 nM. Compound `C[C@@H]1N=C(N2CCN(C(=O)[C@@H](CCCCNS(C)(=O)=O)NC3CCC4(CC3)CCN(Cc3ccccc3)C4)[C@H](C(=O)NCc3cccs3)C2)O[C@H]1c1ccccc1` (stereo partly drawn) [Example 128, (2S)-1-[N^2-(2-benzyl-2-azaspiro[4.5]dec-8-yl)-N^6-(methylsulfonyl)-D-lysyl]-4-[(4S,5S)-4-methyl-5-phenyl-4,5-dihydro-1,3-oxazol-2-yl]-N-(thiophen-2-ylmethyl)piperazine-2-carboxamide] has an IC50 of 10.2 nM. `C[C@@H]1N=C(N2CCN(C(=O)[C@@H](CCCCN)NC3CCC4(CC3)CCN(Cc3ccccc3)C4)[C@H](C(=O)NCc3cccs3)C2)O[C@H]1c1ccccc1` (stereo partly drawn) [Example 129, (2S)-1-[N^2-(2-benzyl-2-azaspiro[4.5]dec-8-yl)-D-lysyl]-4-[(4S,5S)-4-methyl-5-phenyl-4,5-dihydro-1,3-oxazol-2-yl]-N-(thiophen-2-ylmethyl)piperazine-2-carboxamide] gave an IC50 of 13 nM. `C[C@@H]1N=C(N2CCN(C(=O)[C@@H](CCCCN(C)C)NC3CCC4(CC3)CCN(Cc3ccccc3)C4)[C@H](C(=O)NCc3cccs3)C2)O[C@H]1c1ccccc1` (stereo partly drawn) [Example 130, (2S)-1-[N^2-(2-benzyl-2-azaspiro[4.5]dec-8-yl)-N^6,N^6-dimethyl-D-lysyl]-4-[(4S,5S)-4-methyl-5-phenyl-4,5-dihydro-1,3-oxazol-2-yl]-N-(thiophen-2-ylmethyl)piperazine-2-carboxamide] was tested, and the IC50 was 1.2 nM. With `C[C@@H]1N=C(N2CCN(C(=O)[C@@H](CCCCN(C)C)N(C)C3CCC4(CC3)CCN(Cc3ccccc3)C4)[C@H](C(=O)NCc3cccs3)C2)O[C@H]1c1ccccc1` (stereo partly drawn) [Example 131, (2S)-1-[N^2-(2-benzyl-2-azaspiro[4.5]dec-8-yl)-N^2,N^6,N^6-trimethyl-D-lysl]-4-[(4S,5S)-4-methyl-5-phenyl-4,5-dihydro-1,3-oxazol-2-yl]-N-(thiophen-2-ylmethyl)piperazine-2-carboxamide] the IC50 was 1.8 nM. Compound `C[C@@H]1N=C(N2CCN(C(=O)[C@@H](CCCCN(C)C)NC3CCC(CN)CC3)[C@H](C(=O)NCc3cccs3)C2)O[C@H]1c1ccccc1` (stereo partly drawn) [Example 133, (2S)-1-{N^2-[4-(aminomethyl)cyclohexyl]-N^6,N^6-dimethyl-D-lysyl}-4-[(4S,5S)-4-methyl-5-phenyl-4,5-dihydro-1,3-oxazol-2-yl]-N-(thiophen-2-ylmethyl)piperazine-2-carboxamide] has an IC50 of 6.6 nM. `Cc1cccc([C@@H]2OC(N3CCN(C(=O)[C@@H](CCCCNS(C)(=O)=O)NC4CCCCC4)[C@H](C(=O)NCc4cccs4)C3)=N[C@H]2C)c1` [Example 134, (2S)-1-[N^2-cyclohexyl-N^6-(methylsulfonyl)-D-lysyl]-4-[(4S,5S)-4-methyl-5-(3-methylphenyl)-4,5-dihydro-1,3-oxazol-2-yl]-N-(thiophen-2-ylmethyl)piperazine-2-carboxamide] was tested, and the IC50 was 10.3 nM. In the case of `C[C@@H]1N=C(N2CCN(C(=O)[C@@H](CCCCN(C)C)NC3CCC4(CC3)CCN(Cc3ccccc3)C4)[C@H](C(=O)NCc3cccs3)C2)O[C@H]1c1ccccc1` (stereo partly drawn) [Example 135, (2S)-1-[N^2-(2-benzyl-2-azaspiro[4.5]dec-8-yl)-N^6,N^6-dimethyl-D-lysyl]-4-[(4S,5S)-4-methyl-5-phenyl-4,5-dihydro-1,3-oxazol-2-yl]-N-(thiophen-2-ylmethyl)piperazine-2-carboxamide], the IC50 is reported as 0.8 nM. `C[C@@H]1N=C(N2CCN(C(=O)[C@H](CCCCN(C)C)NC3CCC4(CC3)CCN(Cc3ccccc3)C4)[C@H](C(=O)NCc3cccs3)C2)O[C@H]1c1ccccc1` (some centres unmarked) [Example 136] gave an IC50 of 23.2 nM. `CC1(C)N=C(N2CCN(C(=O)[C@@H](CC3CCCCC3)NC3CCCCC3)[C@H](C(=O)NCc3cccs3)C2)OC1c1ccccc1` (stereo partly drawn) [Example 137, (2S)-1-(N,3-dicyclohexyl-D-alanyl)-4-(4,4-dimethyl-5-phenyl-4,5-dihydro-1,3-oxazol-2-yl)-N-(thiophen-2-ylmethyl)piperazine-2-carboxamide] showed an IC50 of 23.2 nM. `C[C@@H]1N=C(N2CCN(C(=O)[C@@H](CCCCN(C)C)NC3CCCCC3)[C@H](C(=O)NCc3cccs3)C2)O[C@H]1c1cccc(C#N)c1` [Example 138, (2S)-4[(4S,5S)-5-(3-cyanophenyl)-4-methyl-4,5-dihydro-1,3-oxazol-2-yl]-1-(N^2-cyclohexyl-N^6,N^6-dimethyl-D-lysyl)-N-(thiophen-2-ylmethyl)piperazine-2-carboxamide] showed an IC50 of 1.4 nM. Work on `CN(C)CCCC[C@H](C(=O)N1CCN(C2=NC(C)(C)C(c3ccccc3)O2)C[C@H]1C(=O)NCc1cccc(Cl)c1)N(C)C` (stereo partly drawn) [Example 139, (2S)-N-(3-chlorobenzyl)-4-(4,4-dimethyl-5-phenyl-4,5-dihydro-1,3-oxazol-2-yl)-1-(N^2,N^2,N^6,N^6-tetramethyl-D-lysyl)piperazine-2-carboxamide] yielded an IC50 of 52.4 nM. `CC1(C)N=C(N2CCN(C(=O)[C@@H](CC3CCCCC3)NC3CCCCC3)[C@H](C(=O)NCc3cccs3)C2)OC1c1ccccc1` (stereo partly drawn) [Example 140, (2S)-1-(N,3-dicyclohexyl-D-alanyl)-4-(4,4-dimethyl-5-phenyl-4,5-dihydro-1,3-oxazol-2-yl)-N-(thiophen-2-ylmethyl)piperazine-2-carboxamide] was tested, and the IC50 was 19 nM. Compound `CN(C)CCCC[C@@H](NC1CCC2(CC1)CCN(Cc1ccccc1)C2)C(=O)N1CCN(C2=NC(C)(C)CO2)C[C@H]1C(=O)NCc1cccs1` (stereo partly drawn) [Example 141, (2S)-1-[N^2-(2-benzyl-2-azaspiro[4.5]dec-8-yl)-N^6,N^6-dimethyl-D-lysyl]-4-(4,4-dimethyl-4,5-dihydro-1,3-oxazol-2-yl)-N-(thiophen-2-ylmethyl)piperazine-2-carboxamide] has an IC50 of 9.2 nM. Compound `C[C@@H]1N=C(N2CCN(C(=O)[C@@H](CCCCN(C)C)NC3CCC4(CC3)CCN(Cc3ccccc3)C4)[C@H](C(=O)NCc3cccs3)C2)O[C@H]1c1ccccc1` (stereo partly drawn) [Example 142, (2S)-1-[N^2-(2-benzyl-2-azaspiro[4.5]dec-8-yl)-N^6,N^6-dimethyl-D-lysyl]-4-[(4S,5S)-4-methyl-5-phenyl-4,5-dihydro-1,3-oxazol-2-yl]-N-(thiophen-2-ylmethyl)piperazine-2-carboxamide] has an IC50 of 0.4 nM. In the case of `C[C@H]1N=C(N2CCN(C(=O)[C@@H](CCCCN(C)C)NC3CCC4(CC3)CCN(Cc3ccccc3)C4)[C@H](C(=O)NCc3cccs3)C2)O[C@@H]1c1ccccc1` (stereo partly drawn) [Example 143, (2S)-1[N^2-(2-benzyl-2-azaspiro[4.5]dec-8-yl)-N^6,N^6-dimethyl-D-lysyl]-4-[(4R,5R)-4-methyl-5-phenyl-4,5-dihydro-1,3-oxazol-2-yl]-N-(thiophen-2-ylmethyl)piperazine-2-carboxamide], the IC50 is reported as 9.4 nM. With `CN(C)CCCC[C@@H](NC1CCCCC1)C(=O)N1CCN(C2=NC(C)(C)CO2)C[C@H]1C(=O)NCc1cccs1` [Example 144, (2S)-1-(N^2-cyclohexyl-N^6,N^6-dimethyl-D-lysyl)-4-(4,4-dimethyl-4,5-dihydro-1,3-oxazol-2-yl)-N-(thiophen-2-ylmethyl)piperazine-2-carboxamide] the IC50 was 29.7 nM. Compound `CN(C)CCCC[C@H](C(=O)N1CCN(C2=NC(C)(C)C(c3ccccc3)O2)C[C@H]1C(=O)NCc1ccc2[nH]cc(Cl)c2c1)N(C)C` (stereo partly drawn) [Example 145, (2S)-N-[(3-chloro-1H-indol-5-yl)methyl]-4-(4,4-dimethyl-5-phenyl-4,5-dihydro-1,3-oxazol-2-yl)-1-(N^2,N^2,N^6,N^6-tetramethyl-D-lysyl)piperazine-2-carboxamide] has an IC50 of 6.7 nM. `CN(C)CCCC[C@H](C(=O)N1CCN(C2=NC(C)(C)C(c3ccccc3)O2)C[C@H]1C(=O)NCc1ccc2[nH]cc(Cl)c2c1)N(C)C` (stereo partly drawn) [Example 146, (2S)-N-[(3-chloro-1H-indol-5-yl)methyl]-4-(4,4-dimethyl-5-phenyl-4,5-dihydro-1,3-oxazol-2-yl)-1-(N^2,N^2,N^6,N^6-tetramethyl-D-lysyl)piperazine-2-carboxamide] showed an IC50 of 5.7 nM.
